Experimental data reported in US20040039014A1, “Methods and compounds for treating depression and other disorders” (NPS Pharmaceuticals, Inc., priority 1998, published 2004).
Read-outs that look alike come from different tables or passages of the source. Marks after values point to notes of the source that are not given here.

Tests used:
[1] = molecular target: T1, norepinephrine transporter site (Rattus norvegicus, UniProt Q63380); test: Norepinephrine reuptake inhibition assay ([3H]nisoxetine binding, rat forebrain membranes)
T1 construct: tissue NovaScreen (performed the assay); host or cells: rat forebrain membranes
T1 sequence (Q63380 1-617): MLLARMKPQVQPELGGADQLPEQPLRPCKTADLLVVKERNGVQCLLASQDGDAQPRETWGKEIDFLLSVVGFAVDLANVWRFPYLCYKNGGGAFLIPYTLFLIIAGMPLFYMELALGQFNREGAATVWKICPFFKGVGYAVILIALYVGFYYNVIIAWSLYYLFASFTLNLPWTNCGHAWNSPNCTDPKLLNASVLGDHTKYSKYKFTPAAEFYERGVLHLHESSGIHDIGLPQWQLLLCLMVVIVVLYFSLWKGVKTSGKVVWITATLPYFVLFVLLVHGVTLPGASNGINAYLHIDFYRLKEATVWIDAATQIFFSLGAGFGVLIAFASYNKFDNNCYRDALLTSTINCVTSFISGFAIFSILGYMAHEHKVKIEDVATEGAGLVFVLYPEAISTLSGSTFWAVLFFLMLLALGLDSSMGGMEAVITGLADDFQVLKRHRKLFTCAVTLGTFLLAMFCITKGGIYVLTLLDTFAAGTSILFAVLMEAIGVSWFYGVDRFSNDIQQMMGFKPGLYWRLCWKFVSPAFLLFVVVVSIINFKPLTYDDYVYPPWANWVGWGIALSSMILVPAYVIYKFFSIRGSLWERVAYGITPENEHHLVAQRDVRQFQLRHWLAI
Protocol: (§1) Monoamine Transporter Minding Assays
(§2) Monoamine transporter binding assays (reuptake inhibition assays) were performed by NovaScreen using standard radioligand binding assays. The transporter binding assays are described briefly below:
Norepinephrine Reuptake Inhibition Assay
Reactions were terminated by rapid vacuum filtration onto glass fiber filters.

[2] = molecular target: T2, NMDA receptor; test: [3H]MK-801 binding assay (rat cortex synaptic plasma membranes); details: read-out: [3H]MK-801 data IC50, Table I
T2 construct: rat cortex membranes
Protocol: Synaptic plasma membranes (SPMs) from rat cortex were prepared as follows. Isolated cerebral cortices from male and female rats were purchased from Pel-Freez (Rogers, Ariz.) in bulk, and stored at −80° C. The cortices from 25 rats were thawed and pooled. […] The resulting homogenates were centrifuged for 10 min at 1,000×g in a T865 rotor, UltraPro80 Sorvall Centrifuge. The supernatant was removed and subsequently centrifuged at 30,000×g for 30 min. […] Membranes were washed by re-suspension in 500 ml of 5 mM K-EDTA (pH 7.0), incubated at 32° C. for 30 min with stirring, and centrifuged at 100,000×g for 30 min. The final pellet was resuspended in 60 ml of […] K-EDTA (pH 7.0) and stored in aliquots at −80° C. The extensive washing procedure utilized in this assay was designed to minimize the concentrations of glutamate and glycine (co-agonists at the NMDA receptor-ionophore complex) present in the membrane preparation.
On the day of assay, aliquots of SPM were thawed and resuspended in 75 vols of 5 mM K-EDTA, pH 7.0. SPM were centrifuged at 100,000×g for 30 min at 4° C.
The SPM pellet was resuspended in assay buffer (30 mM EPPS, 1 mM K-EDTA, pH 7.0) by polytron. […] Binding was started by the addition of the tissue homogenate. The assay was terminated by the addition of 4 ml ice-cold buffer, followed by filtration over glass-fiber filters (Schleicher & Schuell No. 30) on a Millipore 12-well filtration manifold. Filters were washed with another 3 ×4 ml ice-cold buffer (pH 7.0). Radioactivity on the filters was measured using Fisherbrand Scinti-Safe scintillation cocktail. Samples were shaken for 45-60 min on a shaker platform to solubilize the radioactivity. Counting for ^3H was performed in a Beckman 6000IC LS Scintillation Counter for 4 min per sample.

[3] = molecular target: T3, dopamine transporter site (Cavia porcellus, UniProt H0WCX4); test: Dopamine reuptake inhibition assay ([3H]WIN 35428 binding, guinea pig striatal membranes)
T3 construct: tissue NovaScreen (performed the assay); host or cells: guinea pig striatal membranes
T3 sequence (H0WCX4 1-619): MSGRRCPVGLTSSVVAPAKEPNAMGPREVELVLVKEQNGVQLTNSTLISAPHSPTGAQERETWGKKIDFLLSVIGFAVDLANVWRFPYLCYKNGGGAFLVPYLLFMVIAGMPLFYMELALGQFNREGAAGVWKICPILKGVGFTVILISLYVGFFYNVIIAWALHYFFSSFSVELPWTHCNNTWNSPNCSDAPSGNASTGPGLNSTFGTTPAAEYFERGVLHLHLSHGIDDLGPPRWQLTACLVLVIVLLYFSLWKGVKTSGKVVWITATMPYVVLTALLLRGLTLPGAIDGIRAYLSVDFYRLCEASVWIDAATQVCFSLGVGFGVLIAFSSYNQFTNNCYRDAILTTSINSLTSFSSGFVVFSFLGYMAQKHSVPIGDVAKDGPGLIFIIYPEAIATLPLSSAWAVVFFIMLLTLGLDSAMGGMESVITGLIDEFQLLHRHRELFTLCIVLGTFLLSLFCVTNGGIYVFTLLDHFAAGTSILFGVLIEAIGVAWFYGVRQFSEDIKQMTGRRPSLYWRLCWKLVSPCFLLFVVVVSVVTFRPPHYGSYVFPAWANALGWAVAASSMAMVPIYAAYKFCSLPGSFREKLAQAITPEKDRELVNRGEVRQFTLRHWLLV
Protocol: as §1, §2
Dopamine Reuptake Inhibition Assay:
Reactions were terminated by rapid vacuum filtration onto glass fiber filters. Bound radioactivity was determined using liquid scintillation spectrometry and experimental values were compared to control values to determine binding to the dopamine transporter site based on Madras, et al., Molec.

[4] = tested on: T4, NMDA receptor; test: NMDA receptor assay (fura-2 cytosolic calcium in cultured rat cerebellar granule cells); type: cell-based; details: Table I, read-out: fura2 data IC50
T4 construct: fura2 data IC50; rat cerebellar granule cells
Protocol: All culture media, antibiotics, and enzymes, with the exception of fetal calf serum (Hyclone Laboratories, Logan, Utah), were purchased from Sigma Chemical Co., St. Louis, Mo. Fura-2/AM was obtained from Molecular Probes, Eugene, Oreg., and was prepared freshly in dimethylsulfoxide (DMSO) before use. Ionomycin (Calbiochem) was stored as a stock solution in DMSO. Nifedipine (Sigma) and nimodipine (RBI) were dissolved in absolute ethanol. […] All other agents were dissolved in phosphate-buffered saline (PBS), and adjusted to pH 7.4
Preparation of Rat Cerebellar Granule Cell (RCGC) Cultures
Briefly, primary cultures of cerebellar granule neurons were obtained from 8-day-old rats and plated onto squares of Aclar plastic coated with poly-L-lysine. The plastic squares were placed in 12-well culture plates, and ˜7.5×10^5 cells were added to each well. Cultures were maintained in Eagles's medium containing 25 mM KCl, 10% fetal calf serum, 2 mM glutamine, 100 μg/ml gentamicin, 50 U/ml penicillin, and 50 μg/ml streptomycin at 37° C. in a humid atmosphere of 5%CO2 in air for 24 hr before the addition of cytosine arabinoside (10 μM, final). No changes of culture medium were made until the cells were used for fluorescence recording 6-8 days after plating.
Measurement of Cytosolic Calcium
(“Ca^2+-free” buffer contained no added CaCl2 and 30 μM EGTA). The cells were then rinsed with the same buffer, lacking fura-2/AM, and maintained at room temperature until used for measurement of fluorescence, the Aclar squares were transferred into quartz cuvettes containing 2 ml of the HEPES buffer. The cuvette was then placed into a thermostatted holder equipped with a magnetic stirrer in a custom-built spectrofluorimeter (Biomedical Instrumentation Group, University of Pennsylvania, Philadelphia, Pa.). The size of the plastic Aclar square was such as to fit snugly in the cuvette when placed at a diagonal and therefore suspend itself over the spin bar. Fluorescence was measured using excitation and emission wavelengths of 340 and 510 nm, respectively. The amplitude of the evoked increase in fluorescence and subsequent inhibition were recorded and the concentration of [Ca^2+]i was calculated using the formula:
[Ca^2+]=Kd (F-Fmin)/(Fmax-F) (Eq. 1)
F=fluorescence amplitude evoked at a particular time point or concentration of compound;
Fmin=minimum fluorescence determined after the addition of a 2.5 M TRIS/0.3 M EGTA solution;
Fmax=maximum fluorescence determined following the addition of 7 mM ionomycin in DMSO; and […]

[5] = molecular target: T5, serotonin transporter site (Rattus norvegicus, UniProt P31652); test: Serotonin reuptake inhibition assay ([3H]citalopram binding, rat forebrain membranes)
T5 construct: tissue NovaScreen (performed the assay); host or cells: rat forebrain membranes
T5 sequence (P31652 whole entry): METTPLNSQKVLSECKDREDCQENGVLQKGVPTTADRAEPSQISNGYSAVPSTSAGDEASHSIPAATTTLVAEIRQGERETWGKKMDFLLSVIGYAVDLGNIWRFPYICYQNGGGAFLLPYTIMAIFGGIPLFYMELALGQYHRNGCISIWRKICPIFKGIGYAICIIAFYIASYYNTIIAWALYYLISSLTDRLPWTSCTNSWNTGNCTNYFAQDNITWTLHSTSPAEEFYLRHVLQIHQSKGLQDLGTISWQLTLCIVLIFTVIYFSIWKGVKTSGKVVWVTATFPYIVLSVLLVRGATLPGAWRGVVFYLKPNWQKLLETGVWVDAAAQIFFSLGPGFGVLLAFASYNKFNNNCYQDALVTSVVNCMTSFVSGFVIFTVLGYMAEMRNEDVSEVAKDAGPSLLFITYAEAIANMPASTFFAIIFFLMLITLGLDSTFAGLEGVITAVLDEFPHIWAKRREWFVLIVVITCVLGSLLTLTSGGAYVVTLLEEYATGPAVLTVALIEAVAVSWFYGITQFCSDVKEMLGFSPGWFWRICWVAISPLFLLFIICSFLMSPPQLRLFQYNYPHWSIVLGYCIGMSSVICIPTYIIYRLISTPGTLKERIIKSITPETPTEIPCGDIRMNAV
Protocol: as §1, §2
Serotonin Reuptake Inhibition Assay
Rat forebrain membranes were incubated with 0.7 nM [^3H] citalopram, N-methyl, (70-87 Ci/mmol)in 50 mM Tris-HCl (pH 7.4), 120 mM NaCl, and 5 mM KCl at 25° C. for 60 minutes. […] Reactions were terminated by rapid vacuum filtration onto glass fiber filters.

[6] = tested on: male NMRI-CERJ mice; test: Automated tail-suspension test in mice (Compound 19); type: in vivo, mouse; details: 16 mg/kg i.p., 30 min prior to testing; p<0.001
Protocol: In this test, the animal is suspended by the tail for 6 minutes. The behavior of the animal is recorded automatically using a special computerized apparatus which measures two parameters, the duration of immobility and the power of the movements. Ten animals are studied per dose group. […] This test, which is a variant of the behavioral despair test, is based on the assumption that animals faced with an insoluble aversive situation will alternate between phases of activity (searching to escape) and immobility (waiting, “despairs”).

[7] = tested on: male NIH-Swiss mice; test: Mouse forced-swim test (FST); type: in vivo; details: 10 mg/kg i.p. single dose 30 minutes prior to testing
Protocol: (§3) For the mouse and rat forced-swim tests, male pathogen-free NIH-Swiss mice (Harlan Sprague-Dawley) weighing between 22-25 g, and male pathogen-free Sprague-Dawley rats (Harlan Sprague-Dawley) weighing between 320-350 g were used. Animals were removed from the housing room to the testing area in their own cages and allowed to adapt to the new environment for at least 1 hour before testing. Mice were administered either drug (imipramine, 10 mg/kg i.p.; or Compound 60, various p.o or i.p. doses) or saline. Thirty minutes to 24 hours later, mice were placed individually in cylinders (diameter: 10 cm; height: 25 cm) filled with 6 cm of water (22-25° C.) for 6 minutes. The duration of immobility during the last 4 minutes of the 6 minute test was scored. A mouse was recorded as immobile when floating motionless or making only those movements necessary to keep its head above water. Results were expressed as the duration of immobility (seconds).

[8] = tested on: male Sprague-Dawley rats; test: Rat forced-swim test (FST); type: in vivo; details: Table VI; 10 mg/kg i.p., 30 minutes prior to testing; saline control 47.9
Protocol: as §3
The rat forced-swim test was conducted over two days. On treatment Day 1, rats were placed individually in cylinders (diameter: 18 cm; height: 40 cm) filled with water (22-25° C.) to a depth of 15 cm for 15 minutes. The duration of immobility during the first 5 minutes was scored. After testing, the rats were dried with paper towels and placed in holding cages. Five minutes after removal from the testing cylinders, animals received either drug (imipramine, 10 mg/kg i.p.; or Compound 60, various p.o. doses) or saline (p.o.). Ten minutes later, the rats were returned to their home cages. […] The duration of immobility during the first 5 minute period was recorded. A rat was recorded as immobile when floating motionless or making only those movements necessary to keep its head above water. […]

[9] = tested on: male C57BL/6 mice; test: Mouse tail-suspension test (TST) with Compound 60; type: in vivo
Protocol: For the mouse tail-suspension test with Compound 60, male pathogen-free C57BL/6 mice (Harlan Sprague-Dawley) weighing between 22-25 g were used. Animals were removed from the housing room to the testing area in their own cages and allowed to adapt to the new environment for at least 1 hour before testing. Mice were administered either drug (imipramine, 15 mg/kg i.p.; or Compound 60, various p.o. doses) or saline. Thirty minutes to 24 hours later, the mice were suspended on the edge of a shelf 80 cm above the floor in the testing room by adhesive tape placed approximately 1 cm from the tip of the tail. The duration of immobility was recorded during a test period of 5 minutes. Mice were considered immobile only when they hung passively and completely motionless. Results were expressed as the duration of immobility (sec).

[10] = Table I, read-out: 5-HT Uptake Ki

Row | SMILES | Ki [1] | IC50 [2] | Ki [3] | IC50 [4] | Ki [5, 10] | also measured
1 | C[C@@H](CN)C(c1cccc(F)c1)c1cccc(F)c1 [Compound 33] | 3800 nM | 181 nM | 826 nM | 60 nM | 1200 nM | –
2 | NCCC(c1cccc(F)c1)c1cccc(F)c1 [Compound 20] | 312 nM | 252 nM | 3000 nM | 70 nM | 256 nM | –
3 | C[C@H](CN)C(c1cccc(F)c1)c1cccc(F)c1 [Compound 34] | 3000 nM | 2700 nM | 602 nM | 426 nM | 2100 nM | –
4 | NCCC(c1ccccc1)c1ccccc1 [Compound 19] | – | 2100 nM | – | – | – | increase in the power of movements [6]: 275%
5 | Fc1cccc(C(c2cccc(F)c2)C2CCCNC2)c1 (centres unmarked) [Compound 111] | 124 nM | 167 nM | 30 nM | 645 nM | – | Ki [5]: 600 nM
6 | CNCCC(c1ccccc1)c1ccccc1 [Compound 67] | – | 2900 nM | – | 11000 nM | – | –
7 | NCCC(Oc1cccc(F)c1)c1ccccc1 (centres unmarked) [Compound 137] | – | – | – | 232 nM | – | –
8 | CN(C)CCCN1c2ccccc2CCc2ccccc21 [Imipramine, reference compound] | – | – | – | – | – | Mean duration of immobility ([7]; Table IV, saline control 129.7): 53.4* sec; Mean duration of immobility ([7]; Table V, saline control 137.8): 72.5* sec; Mean Change in the Duration of Immobility (Day 2 minus Day 1) [8]: −23.3* sec; Mean duration of immobility ([9]; Table VII, positive control, 15 mg/kg i.p. 30 minutes prior to testing, saline control 154.9): 103.6* sec; Duration of Immobility ([9]; Table VIII (experiment #1), 15 mg/kg i.p. single dose 30 minutes prior to testing, saline control 210.1): 133.9* sec
9 | C[C@H](N)CC(c1cccc(F)c1)c1cccc(F)c1 [Compound 50] | 107 nM | 762 nM | 1800 nM | 89 nM | 45 nM | –
